Several values for one entry are separate records, joined by “and”; a condition that tells them apart may be missing. Identical values can stand only once. Like-named read-outs stand apart in the source and are kept apart here.
Test system: Escherichia coli ATCC 25922 (GN_001)
Assay: Synergy of cannabidiol with cell-wall disrupting agent (CBD MIC in combination, FICI)
Assay type: cell-based
Conditions: for FICI: calculated using MIC of 256 μg/mL for cannabidiol; for MIC: Escherichia coli
Procedure: The compounds were stored short term at 4° C.
Analysis was performed using Microsoft Excel.

For `C=C(C)C1CCC(C)=CC1c1c(O)cc(CCCCC)cc1O` (stereo not shown) [Cannabidiol, 2-[3-methyl-6-(1-methylethenyl)-2-cyclohexen-1-yl]-5-pentyl-1,3-benzenediol], the “CBD MIC with Cefuroxime” value (Cefuroxime at 4 μg/mL, Escherichia coli ATCC 25922) was 0.001 µg/mL, the “CBD MIC with Cefuroxime” value (Cefuroxime at 8 μg/mL, Escherichia coli ATCC 25922) was 0.001 µg/mL and the “CBD MIC with Colistin” value (Colistin at 0.06 μg/mL (0.062 in Table 56), Escherichia coli ATCC 25922) was 8 µg/mL. For the same compound, the “CBD MIC with Colistin” value (Colistin at 0.25 μg/mL, Escherichia coli ATCC 25922) was 1 µg/mL, the “CBD MIC with Colistin” value (Colistin at 0.5 μg/mL, Escherichia coli ATCC 25922) was 0.125 µg/mL and the “CBD MIC with Colistin” value (Colistin at […], Escherichia coli ATCC 25922) was 2 µg/mL. For the same compound, the FICI range (Escherichia coli ATCC 25922, CBD with FADDI-287, MIC table (Table 95), listed as CBD) was 0.5-16 and 0.25-8, the FICI range (Escherichia coli ATCC 25922, CBD with FADDI-287, Synergy table (Table 97), listed as CBD) was 0.5 and 0.25-0.5 and the FICI range (Escherichia coli ATCC 25922, CBD with MCC_8980, MIC table (Table 99)) was 0.03-1.02. For the same compound, the FICI range (Escherichia coli ATCC 25922, CBD with MCC_8980, Synergy table (Table 101), listed as CBD) was 0.03-0.26 and 0.03-0.25, the FICI range (Escherichia coli ATCC 25922, CBD with Spero Potentiator SPR741, MIC table (Table 91), listed as CBD) was 0.02-1 and 0.04-1.02 and 0.02-1.01 and the FICI range (Escherichia coli ATCC 25922, CBD with Spero Potentiator SPR741, Synergy table (Table 93), listed as CBD) was 0.02-0.25 and 0.04-0.25. The “CBD MIC with FADDI-287” value (Escherichia coli ATCC 25922, FADDI-287 at […], listed as CBD) was 1 µg/mL, the “CBD MIC with MCC_8980” value (Escherichia coli ATCC 25922, MCC_8980 at 4 μg/mL, listed as CBD) was 16 µg/mL and the “CBD MIC with MCC_8980” value (Escherichia coli ATCC 25922, MCC_8980 at 16 μg/mL, listed as CBD) was 1 µg/mL. The “CBD MIC with Spero SPR206” value (Escherichia coli ATCC 25922, Spero SPR206 at 4 μg/mL, listed as CBD) was 0.0019 µg/mL, the FICI (Escherichia coli ATCC 25922, cannabidiol with FADDI-287 at 0.5 μg/mL) was 2 and the FICI (Escherichia coli ATCC 25922, cannabidiol with FADDI-287 at 1 μg/mL) was 4 and 2. For the same compound, the FICI (Escherichia coli ATCC 25922, cannabidiol with FADDI-287 at 2 μg/mL) was 8 and 4, the FICI (Escherichia coli ATCC 25922, cannabidiol with FADDI-287 at 4 μg/mL) was 16 and 8 and the FICI (Escherichia coli ATCC 25922, cannabidiol with FADDI-287 at […]) was 0.502. For the same compound, the FICI (Escherichia coli ATCC 25922, cannabidiol with MCC_8980 at 0.5 μg/mL) was 1.008, the FICI (Escherichia coli ATCC 25922, cannabidiol with MCC_8980 at 1 μg/mL) was 1.016 and the FICI (Escherichia coli ATCC 25922, cannabidiol with MCC_8980 at 2 μg/mL) was 0.03125. For the same compound, the FICI (Escherichia coli ATCC 25922, cannabidiol with MCC_8980 at 4 μg/mL) was 0.1875, the FICI (Escherichia coli ATCC 25922, cannabidiol with MCC_8980 at 4 μg/mL, listed as cannabidiol) was 0.125 and the FICI (Escherichia coli ATCC 25922, cannabidiol with MCC_8980 at 8 μg/mL) was 0.1328. The FICI (Escherichia coli ATCC 25922, cannabidiol with SPR741 at 0.5 μg/mL) was 1.008 and 1.004, the FICI (Escherichia coli ATCC 25922, cannabidiol with SPR741 at 1 μg/mL) was 1.016 and the FICI (Escherichia coli ATCC 25922, cannabidiol with SPR741 at 16 μg/mL) was 0.127. The MIC (ATCC25922, Escherichia coli ATCC 25922, FADDI-287 at 0.25 μg/mL, read-out: CBD MIC with FADDI-287) was 0.062 µg/mL, the MIC (ATCC25922, Escherichia coli ATCC 25922, FADDI-287 at 0.5 μg/mL, read-out: CBD MIC with FADDI-287) was 0.001 µg/mL and the MIC (ATCC25922, Escherichia coli ATCC 25922, FADDI-287 at 1 μg/mL, read-out: CBD MIC with FADDI-287) was 0.001 µg/mL. For the same compound, the MIC (ATCC25922, Escherichia coli ATCC 25922, FADDI-287 at 2 μg/mL, read-out: CBD MIC with FADDI-287) was 0.001 µg/mL, the MIC (ATCC25922, Escherichia coli ATCC 25922, FADDI-287 at 4 μg/mL, read-out: CBD MIC with FADDI-287) was 0.001 µg/mL and the MIC (ATCC25922, Escherichia coli ATCC 25922, MCC_8980 at 2 μg/mL, read-out: CBD MIC with MCC_8980) was 0.001 µg/mL. The MIC (ATCC25922, Escherichia coli ATCC 25922, MCC_8980 at 4 μg/mL, read-out: CBD MIC with MCC_8980) was 32 µg/mL, the MIC (ATCC25922, Escherichia coli ATCC 25922, MCC_8980 at 8 μg/mL, read-out: CBD MIC with MCC_8980) was 2 µg/mL and the MIC (ATCC25922, Escherichia coli ATCC 25922, MCC_8980 at 16 μg/mL, read-out: CBD MIC with MCC_8980) was 2 µg/mL. For the same compound, the MIC (ATCC25922, Escherichia coli ATCC 25922, Spero SPR206 at 0.007 μg/mL, read-out: CBD MIC with Spero SPR206) was no less than 32 µg/mL, the MIC (ATCC25922, Escherichia coli ATCC 25922, Spero SPR206 at 0.015 μg/mL, read-out: CBD MIC with Spero SPR206) was no less than 32 µg/mL and the MIC (ATCC25922, Escherichia coli ATCC 25922, Spero SPR206 at 0.062 μg/mL, read-out: CBD MIC with Spero SPR206) was 1 µg/mL. It also gave an MIC (ATCC25922, Escherichia coli ATCC 25922, Spero SPR206 at 4 μg/mL, read-out: CBD MIC with Spero SPR206) of 0.001 µg/mL, an MIC (ATCC25922, MCC_6442 at 2 μg/mL, Escherichia coli ATCC 25922, read-out: CBD MIC with MCC_6442) of 0.0039 µg/mL and an MIC (ATCC25922, MCC_6442 at 4 μg/mL, Escherichia coli ATCC 25922, read-out: CBD MIC with MCC_6442) of 0.001 µg/mL. For the same compound, the MIC (ATCC25922, Octapeptin C4 at 4 μg/mL, read-out: CBD MIC with Octapeptin C4) was 0.062 µg/mL, the MIC (ATCC25922, Spero SPR206 at 0.007 μg/mL, 2nd of 3 experiments, read-out: CBD MIC with Spero SPR206) was greater than 256 µg/mL and the MIC (ATCC25922, Spero SPR206 at 0.015 μg/mL, 2nd of 3 experiments, read-out: CBD MIC with Spero SPR206) was greater than 256 µg/mL. The MIC (ATCC25922, Spero SPR206 at 0.062 μg/mL, 2nd of 3 experiments, read-out: CBD MIC with Spero SPR206) was 1 µg/mL, the MIC (ATCC25922, Spero SPR206 at 0.25 μg/mL, 1st of 3 experiments, read-out: CBD MIC with Spero SPR206) was 0.001 µg/mL and the MIC (ATCC25922, Spero SPR206 at 0.25 μg/mL, 2nd of 3 experiments, read-out: CBD MIC with Spero SPR206) was 1 µg/mL. It also gave an MIC (ATCC25922, Spero SPR206 at 0.25 μg/mL, 3rd of 3 experiments, read-out: CBD MIC with Spero SPR206) greater than 256 µg/mL, an MIC (ATCC25922, Spero SPR206 at 0.5 μg/mL, 1st of 3 experiments, read-out: CBD MIC with Spero SPR206) of 0.001 µg/mL and an MIC (ATCC25922, Spero SPR206 at 0.5 μg/mL, 3rd of 3 experiments, read-out: CBD MIC with Spero SPR206) of 2 µg/mL. For the same compound, the MIC (ATCC25922, Spero SPR206 at 1 μg/mL, 1st of 3 experiments, read-out: CBD MIC with Spero SPR206) was 0.001 µg/mL, the MIC (ATCC25922, Spero SPR206 at 1 μg/mL, 3rd of 3 experiments, read-out: CBD MIC with Spero SPR206) was 0.5 µg/mL and the MIC (ATCC25922, Spero SPR206 at 2 μg/mL, 1st of 3 experiments, read-out: CBD MIC with Spero SPR206) was 0.001 µg/mL. It also gave an MIC (ATCC25922, Spero SPR206 at 2 μg/mL, 3rd of 3 experiments, read-out: CBD MIC with Spero SPR206) of 0.25 µg/mL, an MIC (ATCC25922, Spero SPR206 at 4 μg/mL, 1st of 3 experiments, read-out: CBD MIC with Spero SPR206) of 0.001 µg/mL and an MIC (ATCC25922, Spero SPR206 at 4 μg/mL, 3rd of 3 experiments, read-out: CBD MIC with Spero SPR206) of 0.001 µg/mL. For the same compound, the “activity of cannabidiol in combination with Polymyxin B” value (Example 1) was “effective”, the “Average FICI score” value (Example 1, GN_001, cannabidiol + MCC_006636 (Polymyxin B)) was 0.15 and the Synergy (Example 1, GN_001, cannabidiol + MCC_006636 (Polymyxin B), synergy when FICI≤0.5) was “YES”. The “activity of cannabidiol combined with colistin” value (Example 3) was “effective”, the “CBD MIC with Colistin at concentration 0.015625 μg/mL” value (Example 3, GN_001) was greater than 256 µg/mL and the “CBD MIC with Colistin at concentration 0.03125 μg/mL” value (Example 3, GN_001) was greater than 256 µg/mL. For the same compound, the “CBD MIC with Colistin at concentration 0.0625 μg/mL” value (Example 3, GN_001) was 8 µg/mL, the “CBD MIC with Colistin at concentration 0.25 μg/mL” value (Example 3, GN_001) was 1 µg/mL and the “CBD MIC with Colistin at concentration 0.5 μg/mL” value (Example 3, GN_001) was 0.125 µg/mL. The “CBD MIC with Colistin at concentration […]” value (Example 3, GN_001) was 2 µg/mL, the “activity of cannabidiol combined with Polymyxin B” value (Example 6) was “effective” and the “CBD MIC with Polymyxin B at concentration 0.015625 μg/mL” value (Example 6, GN_001) was greater than 256 µg/mL. The “CBD MIC with Polymyxin B at concentration 0.03125 μg/mL” value (Example 6, GN_001) was greater than 256 µg/mL, the “CBD MIC with Polymyxin B at concentration 0.0625 μg/mL” value (Example 6, GN_001) was greater than 256 µg/mL and the “CBD MIC with Polymyxin B at concentration 0.5 μg/mL” value (Example 6, GN_001) was 0.0009766 µg/mL. For the same compound, the “CBD MIC with Polymyxin B at concentration […]” value (Example 6, GN_001) was greater than 256 µg/mL, the “CBD MIC with Polymyxin B at concentration 0.25 μg/mL” value (Example 6, GN_001, listed as CBD) was 2 µg/mL and 4 µg/mL and the “activity of cannabidiol in combination with octapeptin MCC_006442” value (Example 7) was “slightly effective”. The “activity of cannabidiol combined with ticarcillin” value (Example 13) was “effective”, the “activity of cannabidiol combined with colistin” value (Example 14) was “effective” and the “activity of cannabidiol combined with octapeptin MCC_006442” value (Example 15) was “effective”. For the same compound, the “activity of cannabidiol combined with cefotetan” value (Example 17) was “effective”, the “activity of cannabidiol combined with aztreonam” value (Example 18) was “effective” and the “activity of cannabidiol combined with cefepime” value (Example 19) was “effective”. For the same compound, the “activity of cannabidiol combined with octapeptin C4” value (Example 21) was “effective”, the “activity of cannabidiol in combination with Spero Potentiator SPR741” value (Example 22) was “effective” and the “activity of cannabidiol in combination with Spero SPR206” value (Example 22) was “effective”. For the same compound, the “activity of cannabidiol in combination with octapeptin FADDI-287” value (Example 23) was “effective”, the “activity of cannabidiol in combination with MCC_8980” value (Example 24) was “effective” and the “CBD MIC with MCC_6442” value (MCC_6442 at 2 μg/mL, Escherichia coli ATCC 25922, listed as CBD) was 0.0078 µg/mL. The “CBD MIC with Spero SPR206” value (Spero SPR206 at 1 μg/mL, 3rd of 3 experiments, listed as CBD) was 0.25 µg/mL, the “CBD MIC with Spero SPR206” value (Spero SPR206 at 4 μg/mL, 3rd of 3 experiments, listed as CBD) was 0.0019 µg/mL and the “CBD MIC with Ticarcillin” value (Ticarcillin at 4 μg/mL, Escherichia coli ATCC 25922) was 0.125 µg/mL. For the same compound, the “CBD MIC with Ticarcillin” value (Ticarcillin at 8 μg/mL, Escherichia coli ATCC 25922) was 0.001 µg/mL.

Reference: patent publication US20230013669A1, “Antibacterial Treatment Using a Cannabinoid and an Active Agent” (priority 2019, published 2023)
